Data on six compounds can be found in patent publication US6670363B1, “Azole compounds as therapeutic agents for fungal infections” (Ranbaxy Laboratories Limited, priority 2000, dated 2003).

One may read the melting point as the temperature of the solid-liquid transition. The term pIC50 denotes −log10 of the IC50, conventionally taken in molar units.

pIC50: −log10 of the molar value. Values after ≈ are worked out from the molar mass of the structure shown.

The test system of one data set is A. fumigatus s 1008. The experiment in a line: In vitro MIC, NCCLS M38P broth method (RPMI 1640/MOPS pH7), Aspergillus fumigatus. Format: cell-based. The conditions noted are these: A. fumigatus strain 1008.
A further data set relates to Candida. As to the kind of experiment: In vitro MIC, NCCLS M27A, Candida species. Format: cell-based. Also on record: MIC, Candida albicans 1.549 / MIC, Candida albicans Y-01-19 / MIC, C. krusei 766-1 / MIC, C. krusei Q. C / MIC, Candida tropicalis ATCC / MIC, C. glabrata 90030: unit not given beside the values; MIC, Candida albicans A 26 / MIC, C. parapsilosis Q. C.: unit not given here. The conditions noted are these: for MIC, C. glabrata 90030: C. glabrata strain 90030; for MIC, C. krusei 766-1: C. krusei strain 766-1; for MIC, C. krusei Q. C: C. krusei strain Q. C; for MIC, C. parapsilosis Q. C.: C. parapsilosis strain Q. C.; for MIC, Candida albicans 1.549: Candida albicans strain 1.549; for MIC, Candida albicans A 26: Candida albicans strain A 26; for MIC, Candida albicans Y-01-19: Candida albicans strain Y-01-19.

The next data set concerns Cryptococcus neoformans. As to the kind of experiment: In vitro MIC, NCCLS M27A, Cryptococcus neoformans. The data set is classed as cell-based. Also on record: MIC, C. neoformans I: unit not given beside the values; MIC, C. neoformans M 106: unit not given here. The conditions noted are these: for MIC, C. neoformans I: C. neoformans strain I; for MIC, C. neoformans M 106: C. neoformans strain M 106.

The test system of another data set is Histoplasma capsulatum. Format: cell-based.
The test system of data set [1] is isolates of Aspergillus species. Particulars: cited from earlier work.
For data set [2], the target named is lanosterol 14α—demethylase. Particulars: target enzyme in the fungus; read-out: IC50 against lanosterol 14α-demethylase; cited from earlier work.

On to `O=c1n(-c2ccc(N3CCN(c4cccc(Cl)c4)CC3)cc2)cnn1CC(O)(Cn1cncn1)c1ccc(F)cc1F` (stereo not shown) [Compound 57, 2-[2-(2,4-Difluorophenyl)-2-hydroxy-3-(1H-1,2,4-triazol-1-yl)propyl]-4-{4-[4-(3-chlorophenyl)-1-piperazinyl]phenyl}-3-(2H,4H)-1,2,4-triazolone], for which the melting point fell in the range of 177 to 178 °C. For the same compound, the “MIC, A. fumigatus 1008” value with A. fumigatus s 1008 is more than 16. In the data set with Candida, the “MIC, C. glabrata 90030” value is 0.25; the “MIC, C. krusei 766-1” value was 0.50; the “MIC, C. krusei Q. C” value is 0.25; the “MIC, C. parapsilosis Q. C.” value is less than 0.03. In the data set with Candida, the “MIC, Candida albicans 1.549” value was determined as 0.25; the “MIC, Candida albicans A 26” value is reported as less than 0.03; the “MIC, Candida albicans Y-01-19” value came out at 0.12; the “MIC, Candida tropicalis ATCC” value is listed as less than 0.03. In addition, in the data set on Cryptococcus neoformans, the “MIC, C. neoformans I” value is less than 0.03 and the “MIC, C. neoformans M 106” value was less than 0.03. For the same compound, the MIC, H. capsulatum against Histoplasma capsulatum was determined as 0.06 µg/mL (≈ 0.101 µM).

For the compound `CCc1ccccc1N1CCN(c2ccc(-n3cnn(CC(O)(Cn4cncn4)c4ccc(F)cc4F)c3=O)cc2)CC1` (stereo not shown) [Compound 60, 2-[2-(2,4-Difluorophenyl)-2-hydroxy-3-(1H-1,2,4-triazol-1-yl)propyl]-4-{4-[4-(2-ethylphenyl)-1-piperazinyl]phenyl}-3-(2H,4H)-1,2,4-triazolone], the melting point lay in the range of 148 to 150 °C. In the data set on A. fumigatus s 1008, the “MIC, A. fumigatus 1008” value is given as more than 16. Further, in the data set with Candida, the “MIC, C. glabrata 90030” value is listed as 0.50; the “MIC, C. krusei 766-1” value was 1.00; the “MIC, C. krusei Q. C” value turned out to be 0.25; the “MIC, C. parapsilosis Q. C.” value is less than 0.03. In the data set on Candida, the “MIC, Candida albicans 1.549” value is listed as more than 16; the “MIC, Candida albicans A 26” value is on record as less than 0.03; the “MIC, Candida albicans Y-01-19” value came to 0.25; the “MIC, Candida tropicalis ATCC” value is given as less than 0.03. Besides, in the data set with Cryptococcus neoformans, the “MIC, C. neoformans I” value is less than 0.03 and the “MIC, C. neoformans M 106” value is less than 0.03. In addition, the MIC, H. capsulatum in the data set with Histoplasma capsulatum is less than 0.03 µg/mL.

For `O=c1n(-c2ccc(N3CCN(c4cc(Cl)cc(Cl)c4)CC3)cc2)cnn1CC(O)(Cn1cncn1)c1ccc(F)cc1F` (stereo not shown) [Compound 61, 2-[2-(2,4-Difluorophenyl)-2-hydroxy-3-(1H-1,2,4-triazol-1-yl)propyl]-4-{4-[4-(3,5-dichlorophenyl)-1-piperazinyl]phenyl}-3-(2H,4H)-1,2,4-triazolone], the melting point fell in the range of 222 to 225 °C. The “MIC, A. fumigatus 1008” value against A. fumigatus s 1008 is more than 16. Also, in the data set with Candida, the “MIC, C. glabrata 90030” value stood at 0.50; the “MIC, C. krusei 766-1” value amounted to 0.50; the “MIC, C. krusei Q. C” value was 0.25; the “MIC, C. parapsilosis Q. C.” value is given as less than 0.03. In addition, in the data set with Candida, the “MIC, Candida albicans 1.549” value is 0.25; the “MIC, Candida albicans A 26” value is listed as less than 0.03; the “MIC, Candida albicans Y-01-19” value is on record as 0.12; the “MIC, Candida tropicalis ATCC” value was less than 0.03. In the data set with Cryptococcus neoformans, the “MIC, C. neoformans I” value was less than 0.03 and the “MIC, C. neoformans M 106” value is reported as less than 0.03. Also, in the data set on Histoplasma capsulatum, the MIC, H. capsulatum was less than 0.03 µg/mL.

As to `O=c1n(-c2ccc(N3CCN(c4ccccc4F)CC3)cc2)cnn1CC(O)(Cn1cncn1)c1ccc(F)cc1F` (stereo not shown) [Compound 62, 2-[2-(2,4-Difluorophenyl)-2-hydroxy-3-(1H-1,2,4-triazol-1-yl)propyl]-4-{4-[4-(2-fluorophenyl)-1-piperazinyl]phenyl}-3-(2H,4H)-1,2,4-triazolone], the melting point was 74 to 76 °C. The “MIC, A. fumigatus 1008” value against A. fumigatus s 1008 came to 16.00. Also, in the data set with Candida, the “MIC, C. glabrata 90030” value is recorded as 1.00; the “MIC, C. krusei 766-1” value is given as 2.00; the “MIC, C. krusei Q. C” value is 0.50; the “MIC, C. parapsilosis Q. C.” value was less than 0.03. In the data set with Candida, the “MIC, Candida albicans 1.549” value is reported as 4.00; the “MIC, Candida albicans A 26” value is less than 0.03; the “MIC, Candida albicans Y-01-19” value amounted to 0.50; the “MIC, Candida tropicalis ATCC” value is on record as less than 0.03. Also, in the data set with Cryptococcus neoformans, the “MIC, C. neoformans I” value is less than 0.03 and the “MIC, C. neoformans M 106” value was determined as 0.12. The MIC, H. capsulatum against Histoplasma capsulatum is less than 0.03 µg/mL.

As to `O=c1n(-c2ccc(N3CCN(c4ccc(F)c(F)c4F)CC3)cc2)cnn1CC(O)(Cn1cncn1)c1ccc(F)cc1F` (stereo not shown) [Compound 63, 2-[2-(2,4-Difluorophenyl)-2-hydroxy-3-(1H-1,2,4-triazol-1-yl)propyl]-4-{4-[4-(2,3,4-trifluorophenyl)-1-piperazinyl]phenyl}-3-(2H,4H)-1,2,4-triazolone], the melting point is 186 to 187 °C. The “MIC, A. fumigatus 1008” value with A. fumigatus s 1008 was more than 16. In addition, in the data set on Candida, the “MIC, C. glabrata 90030” value is listed as 0.50; the “MIC, C. krusei 766-1” value turned out to be 8.00; the “MIC, C. krusei Q. C” value is 0.25; the “MIC, C. parapsilosis Q. C.” value is given as less than 0.03. Besides, in the data set with Candida, the “MIC, Candida albicans 1.549” value is listed as 0.06; the “MIC, Candida albicans A 26” value is less than 0.03; the “MIC, Candida albicans Y-01-19” value came to 0.12; the “MIC, Candida tropicalis ATCC” value is reported as less than 0.03. Also, in the data set on Cryptococcus neoformans, the “MIC, C. neoformans I” value is on record as less than 0.03 and the “MIC, C. neoformans M 106” value was less than 0.03. The same compound showed an MIC, H. capsulatum in the data set on Histoplasma capsulatum of less than 0.03 µg/mL.

Turning to `OC(Cn1cncn1)(Cn1cncn1)c1ccc(F)cc1F` [fluconazole], in data set [1], the “minimum inhibitory concentration (MIC)” value was 400 µg/mL (≈ 1310 µM). Also, the pIC50 in data set [2] was 5.32.
